Data reported in patent US8227510B2, “Combine use of pterostilbene and quercetin for the production of cancer treatment medicaments” (Universitat de Valencia, priority 2004, dated 2012).
Marks after values point to notes of the source that are not given here.

Experiment: Plasma levels after oral administration in mice
Assay type: in vivo
Conditions: 20 mg/kg oral
Excerpt: The mice (C57BL/6J, male, 6-8 weeks) were from Charles River Spain (Barcelona). The procedures and animal care were based on institutional standards and complied with national and international laws and policies (Directive 86/609, OJ L 358. 1 of the Council of the European Community, of 12 Dec. 1987) and the “Guide for the Care and Use of Laboratory Animals” of the National Institutes of Health (NIH, USA) (NIH Publication No. 85-23, 1985). All the animals were fed according to concentrated laboratory diets (Letica, Barcelona, Spain) allowing them free access to food and submitting them to a cycle of 12 hours of light/12 hours of darkness with ambient temperature of 22° C. The experiments were begun at 10.00 a.m. to minimize the effects of diurnal variations.
For the pharmacokinetic studies and for the daily treatment, the mice were administered i.v. (via the jugular vein, where a permanent catheter had previously been fixed by surgical methods; i.v. administration was carried out slowly for 1 minute), and orally (via stomach tube), 20 mg/kg of t-PTER (dissolved in ethanol 0.5 ml/kg of animal weight) or QUER (dissolved in dimethylsulfoxide:saline, 1:0.5 0.15 ml/kg of weight). In general, the compositions based on a combination of PTER and QUER can contain, as excipients, those stated previously or any others that are pharmaceutically acceptable. The presentation of said compositions can be, non-limitatively, in the form of solids such as tablets, capsules, pellets, pills, etc. and liquid presentations such as drops, syrups, injectables, etc. Moreover, the active principles (PTER and QUER) of the composition can be in their uncombined forms or in the form of pharmaceutically acceptable salts, including esters. The t-PTER was synthesized in our laboratory following standardized reactions of Wittig and Heck (www.orgsyn.org), whereas the QUER was obtained from Sigma Chemical Co. (San Luis, Mo., USA). The ^3H-t-PTER (2.2 Ci/mmol), labeled in the ortho and para positions of the benzene rings, was prepared in our laboratory according to a method similar to that used for the deuteration of phenols (18). ^14C-QUER (50 mCi/mmol), labeled in position 4 of the carbon ring, was obtained from the NCI Radiochemical Carcinogen Repository of Chemsyn Laboratories (Kansas City, Mo., USA). The radioactivity was measured using a Varisette 2700 TR analyzer from Packard. Blood was collected by means of the catheter in 1-ml syringes that contained heparin sodium (0.05 ml of a 5% solution in […]). The plasma and the erythrocytes were separated as described previously (19).
LC-MS/MS was carried out using a Quattro Micro triple quadrupole mass spectrometer (Micromass, Manchester, UK) equipped with an LC-10Advp pump, an SLC-10Avp control system and an SIL-10Advp autoinjector from Shimadzu. The samples were analyzed by reverse-phase high-performance liquid chromatography using a Prodigy ODS column (100×2 mm) from Phenomenex (Torrance, Calif., USA), with a particle size of 3 μm. In all cases, 40 μl was injected into the column. Column temperature was maintained at 25° C. The following gradient system was used, pumped through the column at 0.2 ml/minute (min/% A/% B/% C) (A, methanol; B, 10% acetonitrile and 90% ammonium formate 10 mM pH 3.75; C, ammonium formate 10 mM pH 3.75): 0/5/5/90, 10/5/5/90, 20/5/90/5, 30/100/0/0, 40/5/5/90. The negative ion tandem mass spectra obtained by electrospray were recorded with the electrospray capillary fixed at […] and at a temperature of the source block of 120° C. Nitrogen was used as nebulizer gas and drying gas, with flows of 300 and 30 l/h, respectively. Argon at 1.5×10^−3 mbar was used as the collision gas for collision-induced dissociation. A test was carried out based on LC-MS/MS with tracking of multiple reactions using the transitions m/z 255-240 for PTER and […] for QUER, which in both cases represent favorable fragmentation routes for these deprotonated molecules. […]

SMILES | time of peak of plasma levels | Plasma level (total) (5 minutes) | Plasma level, % free (5 minutes) | Plasma level (total) (10 minutes) | Plasma level, % free (10 minutes) | Plasma level (total) (30 minutes) | Plasma level, % free (30 minutes) | Plasma level (total) (60 minutes) | Plasma level, % free (60 minutes) | Plasma level (total) (120 minutes) | Plasma level, % free (120 minutes) | Plasma level (total) (240 minutes) | Plasma level, % free (240 minutes) | Plasma level (total) (480 minutes) | Plasma level, % free (480 minutes) | Plasma level (total) (720 minutes) | Plasma level, % free (720 minutes) | also measured
COc1cc(/C=C/c2ccc(O)cc2)cc(OC)c1 [PTER, pterostilbene] | 60 min | 2900 ± 600 nM | 67 ± 13 % free | 6600 ± 1800 nM | 50 ± 10 % free | 11100 ± 3000 nM | 35 ± 5 % free | 18200 ± 2700 nM | 17 ± 6 % free | 13300 ± 3400 nM | 15 ± 3 % free | 10600 ± 1200 nM | 16 ± 4 % free | 7100 ± 800 nM | 14 ± 4 % free | 1600 ± 500 nM | 12 ± 2 % free | free PTER as percentage of the total (between 30 and 240 minutes): 15-35%; total concentration of PTER in plasma (between 30 and 240 minutes): > 10 µM
O=c1c(O)c(-c2ccc(O)c(O)c2)oc2cc(O)cc(O)c12 [QUER, quercetin] | 10 min | 1600 ± 300 nM | 22 ± 6 % free | 2300 ± 700 nM | <0.5* % free | 600 ± 200 nM | <0.5* % free | 200 ± 100 nM | <0.5* % free | 70 ± 10 nM | <0.5* % free | 50 ± 20 nM | <0.5* % free | 50 ± 20 nM | <0.5* % free | 40 ± 10 nM | <0.5* % free | free QUER as percentage of the total (except for the first 5 minutes): 0.5%; levels of total QUER in plasma (first 10 minutes): > 1000 nM
